Results from PMC2878737 (Channels (Austin, Tex.), 2009).

Biological target: NaV1.2 (Rattus norvegicus, UniProt P04775)
Sequence (P04775 whole entry, looked up): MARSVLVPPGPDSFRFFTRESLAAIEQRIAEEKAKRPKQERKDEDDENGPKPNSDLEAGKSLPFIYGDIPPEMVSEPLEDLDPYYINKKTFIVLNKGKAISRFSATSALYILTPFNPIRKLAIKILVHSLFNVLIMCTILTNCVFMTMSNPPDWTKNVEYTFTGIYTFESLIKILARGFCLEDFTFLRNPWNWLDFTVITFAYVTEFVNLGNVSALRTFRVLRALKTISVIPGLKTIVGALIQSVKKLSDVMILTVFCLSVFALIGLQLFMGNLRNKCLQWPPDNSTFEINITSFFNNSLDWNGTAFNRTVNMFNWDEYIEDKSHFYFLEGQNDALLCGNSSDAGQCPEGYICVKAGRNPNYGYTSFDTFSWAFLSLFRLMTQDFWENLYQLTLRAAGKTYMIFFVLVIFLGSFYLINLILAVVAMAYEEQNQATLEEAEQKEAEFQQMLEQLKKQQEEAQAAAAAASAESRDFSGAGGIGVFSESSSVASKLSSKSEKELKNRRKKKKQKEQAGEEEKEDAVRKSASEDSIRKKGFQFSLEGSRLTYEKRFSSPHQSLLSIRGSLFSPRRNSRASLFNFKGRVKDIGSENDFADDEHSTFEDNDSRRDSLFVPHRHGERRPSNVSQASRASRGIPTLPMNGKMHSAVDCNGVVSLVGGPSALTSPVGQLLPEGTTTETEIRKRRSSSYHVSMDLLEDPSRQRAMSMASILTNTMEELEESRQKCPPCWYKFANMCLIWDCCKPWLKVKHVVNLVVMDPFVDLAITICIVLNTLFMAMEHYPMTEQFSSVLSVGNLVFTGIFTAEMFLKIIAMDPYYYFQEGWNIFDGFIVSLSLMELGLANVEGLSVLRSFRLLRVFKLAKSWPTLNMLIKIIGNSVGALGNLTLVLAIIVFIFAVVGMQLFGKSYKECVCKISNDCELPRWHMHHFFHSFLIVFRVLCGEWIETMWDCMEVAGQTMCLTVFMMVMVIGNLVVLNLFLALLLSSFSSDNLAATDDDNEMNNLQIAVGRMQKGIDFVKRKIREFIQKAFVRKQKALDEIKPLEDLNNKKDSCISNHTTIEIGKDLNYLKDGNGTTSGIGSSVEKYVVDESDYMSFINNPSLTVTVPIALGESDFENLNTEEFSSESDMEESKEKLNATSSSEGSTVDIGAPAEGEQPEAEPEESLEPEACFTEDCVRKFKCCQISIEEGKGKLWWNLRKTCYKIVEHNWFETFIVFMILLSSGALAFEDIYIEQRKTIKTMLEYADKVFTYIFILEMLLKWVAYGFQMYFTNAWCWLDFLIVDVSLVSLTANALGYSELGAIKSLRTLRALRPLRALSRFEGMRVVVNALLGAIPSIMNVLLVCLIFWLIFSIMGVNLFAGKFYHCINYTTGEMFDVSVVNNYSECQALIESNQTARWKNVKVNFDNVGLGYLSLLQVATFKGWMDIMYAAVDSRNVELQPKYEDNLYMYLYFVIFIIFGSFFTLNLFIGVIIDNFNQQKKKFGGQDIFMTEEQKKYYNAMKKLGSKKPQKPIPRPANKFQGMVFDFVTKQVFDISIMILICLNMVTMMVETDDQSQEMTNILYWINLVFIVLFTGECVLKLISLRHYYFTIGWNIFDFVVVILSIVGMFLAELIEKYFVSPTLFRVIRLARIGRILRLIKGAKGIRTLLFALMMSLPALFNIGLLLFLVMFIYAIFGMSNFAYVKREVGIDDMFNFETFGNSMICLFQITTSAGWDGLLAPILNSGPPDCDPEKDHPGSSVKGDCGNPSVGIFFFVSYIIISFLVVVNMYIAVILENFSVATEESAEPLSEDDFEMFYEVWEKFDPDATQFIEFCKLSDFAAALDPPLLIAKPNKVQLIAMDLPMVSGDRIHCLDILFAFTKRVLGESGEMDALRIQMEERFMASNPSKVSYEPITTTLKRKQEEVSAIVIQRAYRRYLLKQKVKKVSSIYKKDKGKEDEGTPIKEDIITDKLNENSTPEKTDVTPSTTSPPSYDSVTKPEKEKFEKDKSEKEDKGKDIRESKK

Compound: NC1=N[C@H](O)[C@H]2[C@H]3O[C@]4(O)O[C@@H]([C@@H](O)[C@@]2(N1)[C@@H]4O)[C@]3(O)CO [TTX, Tetrodotoxin]
- block of residual INa persisting with KIIIA or KIIIA[K7A]: completely blocked
